Experiment: The inhibitory constant was evaluated against Endothelin A receptor in rabbit renal artery tissue

- IC50: 130 nM
Structure (SMILES): CC[C@H](C)[C@H](NC(=O)[C@H](CC(=O)O)NC(=O)[C@H](CCCN)NC(=O)[C@@H](Cc1c[nH]c2ccccc12)NC(C)=O)C(=O)N[C@H](C(=O)N[C@@H](Cc1c[nH]c2ccccc12)C(=O)O)[C@@H](C)CC [(S)-3-{(S)-2-[(R)-2-Acetylamino-3-(1H-indol-3-yl)-propionylamino]-5-amino-pentanoylamino}-N-((1S,2R)-1-{(1S,2R)-1-[(S)-1-carboxy-2-(1H-indol-3-yl)-ethylcarbamoyl]-2-methyl-butylcarbamoyl}-2-methyl-butyl)-succinamic acid]

Source: BindingDB's records for doi:10.1016/S0960-894X(01)81219-1 (1993)
